# Reference: patent EP0973746B1, “SUBSTITUTED 3-CYANO QUINOLINES” (Wyeth Holdings Corporation, priority 1997, dated 1998)
# Where two headings read alike, the source gives them in different places.
# Assays:
# A431 [1] = experiment: Inhibition of cell growth by incorporation of [3H]-thymidine, A431; format: cell-based, human; conditions: Homo sapiens
# HTB161 = experiment: Inhibition of cancer cell growth as measured by cell number, HTB161; format: cell-based; conditions: Homo sapiens, read-out: IC50 HTB161
# A27805 = experiment: Inhibition of cancer cell growth as measured by cell number, A27805; format: cell-based; conditions: Homo sapiens, read-out: IC50 A27805
# A2780DDP = experiment: Inhibition of cancer cell growth as measured by cell number, A2780DDP; format: cell-based; conditions: Homo sapiens, read-out: IC50 A2780DDP
# MIP = experiment: Inhibition of cancer cell growth as measured by cell number, MIP; format: cell-based; conditions: Homo sapiens; cell number, Sulforhodamine B, 48 hours exposure; Table 4; read-out: IC50 MIP
# SW620 = experiment: Inhibition of cancer cell growth as measured by cell number, SW620; format: cell-based, human; conditions: Homo sapiens, SW-620, 48 h, Table 4;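 further: SW620 was included as a cell line with little or no EGFR or HER2/neu expression, in contrast to receptor-overexpressing lines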
# Description: (§1) The cell lines were chosen since they overexpressed epidermal growth factor receptor (EGFR) (i.e. A431) or HER2/neu (SKBR3), or had little to no expression of the these receptors (SW620, LOX, MCF7).
# COLO205 = experiment: Inhibition of cancer cell growth as measured by cell number, COLO205; format: cell-based; conditions: Homo sapiens, read-out: IC50 COLO205
# CX1 = experiment: Inhibition of cancer cell growth as measured by cell number, CX1; format: cell-based; conditions: Homo sapiens, read-out: IC50 CX1
# CACO2 = experiment: Inhibition of cancer cell growth as measured by cell number, CACO2; format: cell-based; conditions: Homo sapiens, read-out: IC50 CACO2
# HCT15 = experiment: Inhibition of cancer cell growth as measured by cell number, HCT15; format: cell-based; conditions: Homo sapiens, read-out: IC50 HCT15
# LS174T = experiment: Inhibition of cancer cell growth as measured by cell number, LS174T; format: cell-based; conditions: Homo sapiens
# SW948 = experiment: Inhibition of cancer cell growth as measured by cell number, SW948; format: cell-based; conditions: Homo sapiens, read-out: IC50 SW948
# CCL228 = experiment: Inhibition of cancer cell growth as measured by cell number, CCL228; format: cell-based; conditions: Homo sapiens, read-out: IC50 CCL228
# MCF7 = experiment: Inhibition of cancer cell growth as measured by cell number, MCF7; format: cell-based, human; conditions: Homo sapiens, MCF7, 48 h, Table 5;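 further: MCF7 was included as a line with little or no EGFR or HER2/neu expression, in contrast to the receptor-overexpressing lines of the panel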
# Description: as §1
# B7474 = experiment: Inhibition of cancer cell growth as measured by cell number, B7474; format: cell-based; conditions: Homo sapiens, read-out: IC50 B7474
# T47D = experiment: Inhibition of cancer cell growth as measured by cell number, T47D; format: cell-based; conditions: Homo sapiens
# LX1 = experiment: Inhibition of cancer cell growth as measured by cell number, LX1; format: cell-based; conditions: Homo sapiens, read-out: IC50 LX1
# A549 = experiment: Inhibition of cancer cell growth as measured by cell number, A549; format: cell-based; conditions: Homo sapiens, read-out: IC50 A549
# LOX = experiment: Inhibition of cancer cell growth as measured by cell number, LOX; format: cell-based, human; conditions: Homo sapiens, LOX, 48 h, Table 6;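 further: LOX cells served as a line with low or absent EGFR and HER2/neu expression, in contrast to receptor-overexpressing lines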
# Description: as §1
# A431 [2] = experiment: Inhibition of cancer cell growth as measured by cell number, A431; format: cell-based, human; conditions: Homo sapiens, A-431, 48 h, Table 6;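 further: human A431 line, picked because it overexpresses epidermal growth factor receptor (EGFR)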
# Description: as §1
# NEC = experiment: Inhibition of cancer cell growth as measured by cell number, NEC; format: cell-based; conditions: Homo sapiens, read-out: IC50 NEC
# DU145 = experiment: Inhibition of cancer cell growth as measured by cell number, DU145; format: cell-based; conditions: Homo sapiens, read-out: IC50 DU145
# PC3 = experiment: Inhibition of cancer cell growth as measured by cell number, PC3; format: cell-based; conditions: Homo sapiens, read-out: IC50 PC3
# LNCAP = experiment: Inhibition of cancer cell growth as measured by cell number, LNCAP; format: cell-based; conditions: Homo sapiens
# HL60 = experiment: Inhibition of cancer cell growth as measured by cell number, HL60; format: cell-based; conditions: Homo sapiens, read-out: IC50 HL60
# CCRF-CFM = experiment: Inhibition of cancer cell growth as measured by cell number, CCRF-CFM; format: cell-based; conditions: Homo sapiens, read-out: IC50 CCRF-CFM
# SKBR3 = experiment: Inhibition of cancer cell growth as measured by cell number, SKBR3; format: cell-based, human; conditions: Homo sapiens, Table 7;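 further: SK-BR-3 cells were selected as a line overexpressing HER2/neu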
# Description: as §1
# [3] = target: recombinant human MEK 1 (MAPKK) and recombinant human ERK2 (MAPK); experiment: Mitogen Activated Protein Kinase (MAPK) assay, two component coupled MEK 1 / ERK2; format: biochemical; conditions: separate entries for the same compound = evaluated more than one time;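 further: MEK 1-activated ERK2 phosphorylates MBP or Myc peptide with 33P-ATP, filter capture and scintillation counting, inhibitor preincubated with ERK2 30 min at 0 °C, inhibition relative to uninhibited control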
# [4] = target: epidermal growth factor receptor kinase (Homo sapiens, UniProt P00533); experiment: biochemical
# Protocol: The enzyme was obtained as a membrane extract of A431 cells (American Type Culture Collection, Rockville, MD). A431 cells were grown in T175 flasks to 80% confluency. The cells were washed twice with phosphate buffered saline (PBS) without Ca^2+. Flasks were rotated for 1.5 hours in 20 ml PBS with 1.0 mM ethylenediaminetetraacetic acid (EDTA) at room temperature and centrifuged at 600g for 10 minutes. The cells were solubilized in 1 ml per 5 x 10^6 cells of cold lysis buffer {10mM 4-(2-hydroxyethyl)-1-piperazineethane-sulfonic acid (HEPES), pH 7.6, 10 mM NaCl, 2mM EDTA, 1mM phenylmethyl-sulfonyl-fluoride (PMSF), 10 mg/ml aprotinin, 10 mg/ml leupeptin, 0.1 mM sodium orthovanadate} in a Dounce homogenizer with 10 strokes on ice. The lysate was centrifuged at 600g for 10 minutes first to clear cell debris and the supernatant further centrifuged at 100,000 g for 30 min at 4°C. The membrane pellet was suspended in 1.5 ml HNG buffer (50 mM HEPES, pH 7.6, 125 mM NaCl, 10% glycerol). The membrane extract was divided into aliquots, immediately frozen in liquid nitrogen and stored at -70°C.
# Compounds to be evaluated were made into 10 mg/ml stock solutions in 100% dimethylsulfoxide (DMSO). Prior to experiment, stock solutions were diluted to 500 mM with buffer (30 mM Hepes pH 7.4) and then serially diluted to the desired concentration.
# An aliquot of the A431 membrane extract (10 mg/ml) was diluted in 30 mM HEPES (pH 7.4) to give a protein concentration of 50 ug/ml. […] To this was added the ^33p-ATP (10 mCi/ml) diluted 1:10 in assay buffer along with the substrate peptide at a concentration of 0.5 mM (control reactions get no test compound) and the reaction was allowed to proceed for 30 min at 30°C. The reaction was stopped with 10% TCA and left on ice for at least 10 min after which tubes were microcentrifuged at full speed for 15 min. The a portion of the supernatants were spotted on P81 phosphocellulose discs and washed twice in 1% acetic acid then water for 5 min each followed by scintillation counting. […] The % inhibition of the test compound was determined for at least three different concentrations and the IC50 value was evaluated from the dose response curve. […] CPM(control) is in units of counts per minute and was a number expressing the amount of radiolabeled ATP (g-^33P) incorporated into the RR-SRC peptide substrate by the enzyme after 30 minutes at 30°C in the absence of test compound as measured by liquid scintillation counting. The CPM values were corrected for the background counts produced by ATP in the absence of the enzymatic reaction. The IC50 values reported in TABLE 1 are averages of the number of tests conducted.
# [5] = read-out: IC50 SW620, cell number, Sulforhodamine B, 48 hours exposure
# [6] = read-out: IC50 MCF7, cell number, Sulforhodamine B, 48 hours exposure
# [7] = read-out: IC50 LOX, cell number, Sulforhodamine B, 48 hours exposure
# [8] = read-out: IC50 A431, cell number, Sulforhodamine B, 48 hours exposure
# [9] = SK-BR-3, 48 h, read-out: IC50 SKBR3, cell number, Sulforhodamine B, 48 hours exposure
# [10] = cell number, Sulforhodamine B, 48 hours exposure, Table 4
# [11] = cell number, Sulforhodamine B, 48 hours exposure, Table 6
# Chain of epidermal growth factor receptor kinase (P00533 25-1210): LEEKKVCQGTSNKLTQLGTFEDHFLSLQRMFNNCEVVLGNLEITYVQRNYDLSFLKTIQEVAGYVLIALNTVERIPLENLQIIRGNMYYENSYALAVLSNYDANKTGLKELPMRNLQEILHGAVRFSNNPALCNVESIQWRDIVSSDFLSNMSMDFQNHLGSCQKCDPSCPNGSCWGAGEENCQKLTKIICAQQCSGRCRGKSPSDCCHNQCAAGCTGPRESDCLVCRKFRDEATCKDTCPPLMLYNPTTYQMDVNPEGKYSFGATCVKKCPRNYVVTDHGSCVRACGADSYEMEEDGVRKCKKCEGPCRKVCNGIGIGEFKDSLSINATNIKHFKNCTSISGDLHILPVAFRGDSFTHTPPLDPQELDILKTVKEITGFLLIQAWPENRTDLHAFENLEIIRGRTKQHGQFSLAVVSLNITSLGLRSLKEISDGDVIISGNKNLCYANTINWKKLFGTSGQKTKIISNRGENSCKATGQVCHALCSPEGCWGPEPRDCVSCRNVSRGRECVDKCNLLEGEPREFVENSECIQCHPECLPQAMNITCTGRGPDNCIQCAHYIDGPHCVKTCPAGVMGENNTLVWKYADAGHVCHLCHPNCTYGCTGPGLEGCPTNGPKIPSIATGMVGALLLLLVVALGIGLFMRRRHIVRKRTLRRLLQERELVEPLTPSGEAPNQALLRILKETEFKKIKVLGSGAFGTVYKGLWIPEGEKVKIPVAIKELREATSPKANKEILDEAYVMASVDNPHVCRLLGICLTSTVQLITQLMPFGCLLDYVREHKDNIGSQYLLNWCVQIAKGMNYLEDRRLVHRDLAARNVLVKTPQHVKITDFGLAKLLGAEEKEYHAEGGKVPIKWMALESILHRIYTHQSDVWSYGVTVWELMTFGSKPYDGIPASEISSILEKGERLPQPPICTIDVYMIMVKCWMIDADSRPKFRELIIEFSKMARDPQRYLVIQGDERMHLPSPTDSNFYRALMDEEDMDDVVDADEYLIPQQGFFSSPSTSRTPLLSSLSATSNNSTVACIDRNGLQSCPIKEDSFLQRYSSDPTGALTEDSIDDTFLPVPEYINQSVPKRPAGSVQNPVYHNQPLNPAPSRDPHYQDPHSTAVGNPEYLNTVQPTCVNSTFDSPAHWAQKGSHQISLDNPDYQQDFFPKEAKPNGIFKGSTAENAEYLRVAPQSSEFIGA
smiles,measurement,setting,value
"N#Cc1cnc2ccc([N+](=O)[O-])cc2c1Nc1cccc(Br)c1 [Example 13, 4-[(3-Bromophenyl)amino]-6-nitro-3-quinolinecarbonitrile]",IC50,"A431 [1]; A-431, read-out: IC50 A431",50 µM
same,IC50,HTB161; 48 h,97.1 µg/mL
same,IC50,A27805; 48 h,9.94 µg/mL
same,IC50,A2780DDP; 48 h,57 µg/mL
same,IC50,MIP,7.8 µg/mL
same,IC50,SW620; [5],100 µg/mL
same,IC50,"COLO205; COLO 205, 48 h",45.8 µg/mL
same,IC50,"CX1; CX-1, 48 h",> 100 µg/mL
same,IC50,"CACO2; Caco-2, 48 h",31.5 µg/mL
same,IC50,"HCT15; HCT-15, 48 h",100 µg/mL
same,IC50,"LS174T; 48 h, read-out: IC50 LS174T",94 µg/mL
same,IC50,"SW948; SW948, 48 h",> 100 µg/mL
same,IC50,CCL228; 48 h,> 100 µg/mL
same,IC50,MCF7; [6],65 µg/mL
same,IC50,B7474; 48 h,98.8 µg/mL
same,IC50,"T47D; 48 h, read-out: IC50 T47D",47.7 µg/mL
same,IC50,"LX1; LX-1, 48 h",> 100 µg/mL
same,IC50,"A549; A549, 48 h",> 100 µg/mL
same,IC50,LOX; [7],> 100 µg/mL
same,IC50,A431 [2]; [8],91 µg/mL
same,IC50,NEC; 48 h,> 100 µg/mL
same,IC50,"DU145; DU-145, 48 h",65.8 µg/mL
same,IC50,"PC3; PC-3, 48 h",> 100 µg/mL
same,IC50,"LNCAP; 48 h, read-out: IC50 LNCAP",> 100 µg/mL
same,IC50,"HL60; HL-60, 48 h",70.2 µg/mL
same,IC50,CCRF-CFM; 48 h,> 100 µg/mL
same,IC50,SKBR3; [9],100 µg/mL
same,IC50,[3],> 100 µM
"N#Cc1cnc2ccc(N)cc2c1Nc1cccc(Br)c1 [Example 14, 6-Amino-4-[(3-bromophenyl)amino]-3-quinolinecarbonitrile]",IC50,"A431 [1]; A-431, read-out: IC50 A431",0.1 µM
same,IC50,HTB161; 48 h,1.79 µg/mL
same,IC50,A27805; 48 h,3.59 µg/mL
same,IC50,A2780DDP; 48 h,5.92 µg/mL
same,IC50,MIP,6.19 µg/mL
same,IC50,SW620; [5],88.8 µg/mL
same,IC50,"COLO205; COLO 205, 48 h",> 100 µg/mL
same,IC50,"CX1; CX-1, 48 h",8.9 µg/mL
same,IC50,"CACO2; Caco-2, 48 h",0.989 µg/mL
same,IC50,"HCT15; HCT-15, 48 h",6.63 µg/mL
same,IC50,"LS174T; 48 h, read-out: IC50 LS174T",39.3 µg/mL
same,IC50,"SW948; SW948, 48 h",> 100 µg/mL
same,IC50,CCL228; 48 h,39.4 µg/mL
same,IC50,MCF7; [6],80.7 µg/mL
same,IC50,B7474; 48 h,20.6 µg/mL
same,IC50,"T47D; 48 h, read-out: IC50 T47D",7.39 µg/mL
same,IC50,"LX1; LX-1, 48 h",69.6 µg/mL
same,IC50,"A549; A549, 48 h",7.68 µg/mL
same,IC50,LOX; [7],2.81 µg/mL
same,IC50,A431 [2]; [8],1.5 µg/mL
same,IC50,NEC; 48 h,8.28 µg/mL
same,IC50,"DU145; DU-145, 48 h",0.91 µg/mL
same,IC50,"PC3; PC-3, 48 h",41.2 µg/mL
same,IC50,"LNCAP; 48 h, read-out: IC50 LNCAP",8.98 µg/mL
same,IC50,"HL60; HL-60, 48 h",4.04 µg/mL
same,IC50,CCRF-CFM; 48 h,7.6 µg/mL
same,IC50,SKBR3; [9],43.6 µg/mL
same,IC50,[3],> 100 µM
"COc1cc2[nH]cc(C#N)c(=O)c2cc1OC [Example 33, 1,4-Dihydro-6,7-dimethoxy-4-oxo-3-quinolinecarbonitrile]",IC50,"A431 [1]; A-431, [3H]-thymidine incorporation, A431, read-out: IC50 A431",18 µM
"COc1cc2ncc(C#N)c(Nc3ccc(F)cc3)c2cc1OC [Example 46, 4-((4-Fluorophenyl)amino]-6,7-dimethoxy-3-quinolinecarbonitrile]",IC50,"A431 [1]; A-431, read-out: IC50 A431",1 µM
same,IC50,HTB161; 48 h,9.59 µg/mL
same,IC50,A27805; 48 h,7.41 µg/mL
same,IC50,A2780DDP; 48 h,5.86 µg/mL
same,IC50,MIP,5.6 µg/mL
same,IC50,SW620; [5],> 100 µg/mL
same,IC50,"CX1; CX-1, 48 h",9.7 µg/mL
same,IC50,"CACO2; Caco-2, 48 h",6.03 µg/mL
same,IC50,"HCT15; HCT-15, 48 h",5.6 µg/mL
same,IC50,"LS174T; 48 h, read-out: IC50 LS174T",7.13 µg/mL
same,IC50,"SW948; SW948, 48 h",> 100 µg/mL
same,IC50,CCL228; 48 h,54 µg/mL
same,IC50,B7474; 48 h,32.9 µg/mL
same,IC50,"T47D; 48 h, read-out: IC50 T47D",> 100 µg/mL
same,IC50,"LX1; LX-1, 48 h",34 µg/mL
same,IC50,"A549; A549, 48 h",4.85 µg/mL
same,IC50,LOX; [7],5.35 µg/mL
same,IC50,A431 [2]; [8],8.01 µg/mL
same,IC50,"DU145; DU-145, 48 h",3.63 µg/mL
same,IC50,"PC3; PC-3, 48 h",> 100 µg/mL
same,IC50,"HL60; HL-60, 48 h",6.02 µg/mL
same,IC50,CCRF-CFM; 48 h,61.7 µg/mL
same,IC50,[4],8.83 µM
"COc1cc2ncc(C#N)c(Sc3ccc(Br)cc3)c2cc1OC [Example 50, 4-[(4-Bromophenyl)sulfanyl]-6,7-dimethoxy-3-quinolinecarbonitrile]",IC50,HTB161; [10],4.46 µg/mL
same,IC50,A27805; [10],4.68 µg/mL
same,IC50,A2780DDP; [10],6.42 µg/mL
same,IC50,MIP,7.35 µg/mL
same,IC50,"SW620; cell number, Sulforhodamine B, 48 hours exposure, read-out: IC50 SW620",32.9 µg/mL
same,IC50,"COLO205; COLO 205, cell number, Sulforhodamine B, 48 hours exposure, Table 4",28.5 µg/mL
same,IC50,"CX1; CX-1, cell number, Sulforhodamine B, 48 hours exposure, Table 4",8.72 µg/mL
same,IC50,"CACO2; Caco-2, cell number, Sulforhodamine B, 48 hours exposure, Table 5",4.89 µg/mL
same,IC50,"HCT15; HCT-15, cell number, Sulforhodamine B, 48 hours exposure, Table 5",8.54 µg/mL
same,IC50,"LS174T; cell number, Sulforhodamine B, 48 hours exposure, Table 5, read-out: IC50 LS174T",7.68 µg/mL
same,IC50,"SW948; SW948, cell number, Sulforhodamine B, 48 hours exposure, Table 5",17.9 µg/mL
same,IC50,"CCL228; cell number, Sulforhodamine B, 48 hours exposure, Table 5",6.79 µg/mL
same,IC50,"MCF7; cell number, Sulforhodamine B, 48 hours exposure, read-out: IC50 MCF7",7.14 µg/mL
same,IC50,B7474; [11],7.17 µg/mL
same,IC50,"T47D; cell number, Sulforhodamine B, 48 hours exposure, Table 6, read-out: IC50 T47D",5.42 µg/mL
same,IC50,"LX1; LX-1, cell number, Sulforhodamine B, 48 hours exposure, Table 6",7.21 µg/mL
same,IC50,"A549; A549, cell number, Sulforhodamine B, 48 hours exposure, Table 6",6.82 µg/mL
same,IC50,"LOX; cell number, Sulforhodamine B, 48 hours exposure, read-out: IC50 LOX",4.7 µg/mL
same,IC50,"A431 [2]; cell number, Sulforhodamine B, 48 hours exposure, read-out: IC50 A431",7.35 µg/mL
same,IC50,NEC; [11],6.89 µg/mL
same,IC50,"DU145; DU-145, cell number, Sulforhodamine B, 48 hours exposure, Table 7",5.6 µg/mL
same,IC50,"PC3; PC-3, cell number, Sulforhodamine B, 48 hours exposure, Table 7",8.53 µg/mL
same,IC50,"LNCAP; cell number, Sulforhodamine B, 48 hours exposure, Table 7, read-out: IC50 LNCAP",5.34 µg/mL
same,IC50,"HL60; HL-60, cell number, Sulforhodamine B, 48 hours exposure, Table 7",4.72 µg/mL
same,IC50,"CCRF-CFM; cell number, Sulforhodamine B, 48 hours exposure, Table 7",4.6 µg/mL
same,IC50,"SKBR3; SK-BR-3, cell number, Sulforhodamine B, 48 hours exposure, read-out: IC50 SKBR3",6.83 µg/mL
same,IC50,[3],> 100 µM
same,IC50,[4],5 µM
